Measured values reported in patent US12357695B2, “Peptides and nanoparticles for intracellular delivery of molecules” (AADIGEN, LLC, priority 2019, dated 2025).
Square brackets hold non-standard residues; d marks the D form. Ends that are not written are not given here. Stearyl = stearyl group covalently linked to the N-terminus; Aun = NCCCCCCCCCCC(=O)O; βAla = NCCC(=O)O

Experiments:
mice = assay: In vivo delivery of pGL4 plasmid DNA, intravenous administration, bioluminescence imaging; conditions: 5 μg pGL4 plasmid; for increase of luciferase expression / efficiency relative to ADGN-100: all / different tissues
Experimental: FIGS. 6A-6C show the potency of ADGN-peptide variants for in vivo delivery of Luciferase expressing plasmid pGL4 via intravenous administration in mice. ADGN-peptide/pGL4 particles containing 5 μg plasmid DNA were formed in sterile water, and then diluted in 5% sucrose. Mice received IV injection of 100 μl ADGN-peptide/plasmid complexes. pGL4 Luciferase expression was monitored by bioluminescence imaging after 12 h, 24h, 48h and 72h. […] Results were then expressed as values relative to day 0.
Stable ADGN-peptides/pGL4.11 DNA were evaluated for in vivo delivery of Luciferase mRNA via intravenous and intramuscular administrations. Animals were treated with single dose of pGL4.11 plasmid DNA of 5 μg. via IV and 2.5 μg via intramuscular administration.
pGL4.11 DNA plasmid (5 μg) in sterile water (GIBCO) were mixed with ADGN peptide (sterile water), volume for each sample was adjusted to 100 μl, with sterile water containing 5% Sucrose. Samples were mixed gently with vortex for 1 minute at low speed and incubated for 30 min at room temperature. Samples were filtered on 0.45 μm PES filters prior administration. For IV administration Mice received 100 μl IV injection of either ADGN-106/pGL4, ADGN-100/pGL4, ADGN-100RI/pGL4, ADGN-100-stearyl/PGL4, ADGN-100Hydro1/PGL4, ADGN-100Hydro2/PGL4, ADGN100 Hydro6/PGL4 or ADGN/PGL4 complexes containing 10% or 20% of ADGN-100PEG (3 animals per group). As control, mice from group 3 (2 animals per group) received IV injection of 100 μl of naked pGL4 plasmids (5 μg).
Luciferase expression was monitored by bioluminescence. Bioluminescence imaging was performed after 12, 24, 48 and 72 hrs. Mice received an i.p. injection of 150 μg/g luciferin for noninvasive bioluminescence imaging (IVIS Kinetic; PerkinElmer, Waltham, MA, USA).

293T cells = assay: Cellular delivery of Luciferase mRNA, luciferase expression at 72 hrs; format: cell-based; conditions: 0.25 μg Luc mRNA; for reduction of efficiency / luciferase expression after serum treatment: complexes incubated 3 hrs in 25% serum prior transfection; for reduction of efficiency / luciferase expression after heparan sulfate treatment: complexes incubated 3 hrs with heparan sulfate prior transfection; for luciferase expression: absence of serum or heparan sulfate treatment
Experimental: FIGS. 1A-1C show luciferase expression in 293T cells treated with ADGN-peptide/mRNA complexes. 293T cells cultured in 48 well plates were transfected with ADGN-peptide nanoparticles. ADGN-100, ADGN-106, ADGN-100RI, ADGN-106RI, ADGN-100 Stearyl, ADGN-Hydro1, ADGN-Hydro2, ADGN-Hydro3, ADGN-Hydro4, ADGN-Hydro5, ADGN-Hydro6 and ADGN-peptide/ADGN-100PEG 10% nanoparticles containing 0.25 μg mRNA were formed in sterile water, diluted in sterile water containing 5% Sucrose and filtered with 0.45 μm PES filters. ADGN/mRNA complexes were incubated for 3 hrs in the presence of either 25% serum or heparan sulfate prior transfection. Luciferase expression was monitored 72 hours post transfection and results were reported as RLU (luminescence):mg of protein.
Complex formation with mRNA. The following protocols were used for the transfection of 2-5 106 Cells or Cells at confluency of about 70-80% cultured in 24 well plates. ADGN peptide/mRNA particles were prepared at a 20:1 molar ratio of ADGN-Peptide/mRNA. using (0.25 μg) mRNA. Luc mRNA (0.25 μg) was diluted in 20 μl of sterile water (GIBCO) at room temperature. 5 μl Final Peptide Solution was added to obtain a total volume of 20 μl. The volume was adjusted to 50 μl with sterile water and was mixed gently with vortex 1 min low speed and incubated 30 min at room temperature. Then the volume was made up to 100 μl by adding sterile water containing 5% sucrose, and the solution was mixed gently with vortex 1 min low speed and incubate 5 min at 37° C. and then was proceeded to cell transfection.
Transfection protocol. Protocol is reported for 24 well plate format. Cells were cultured in Dulbecco's Modified Eagle's Medium (DMEM), supplemented with 2 mM glutamine, 1% antibiotics (streptomycin 10,000 μg/mL, penicillin, 10,000 IU/mL) and 10% (w/v) foetal calf serum (FCS), at 37° C. in a humidified atmosphere containing 5% CO2. 24 well plates seeded with 150,000 cells the day prior to transfection were grown to 50-60% confluence and set up to be at about 70% confluences at the time of transfection. Before transfection, cells were washed twice with DMEM. Cells were then overlaid with 0.1 ml of ADGN-peptide/cargo complex solution containing 0.25 μg mRNA, 0.15 μg plasmid DNA or 10-25 nM siRNA, mixed gently, and incubated for 10 min at 37° C. 0.2 mL of fresh DMEM, were added and cells were incubated for 20 min at 37° C. 1 mL of complete DMEM containing 15% FCS were then added in order to reach a final FCS concentration of 10%, without removing the overlay of ADGN-peptide/cargo complexes. Cells were returned to the incubator (37° C., 5% CO2) and 72 hrs post transfection.
ADGN-peptides were evaluated for cellular delivery of Luciferase mRNA in 293T cells. A single dose of mRNA of 0.25 μg was evaluated. Luc mRNA (0.25 μg) in sterile water (GIBCO) were mixed with ADGN-100, ADGN-100RI, ADGN-106, ADGN-106RI, ADGN-100 Stearyl, ADGN-Hydro1, ADGN-Hydro2, ADGN-Hydro5 and ADGN-Hydro6. ADGN-peptide/mRNA complexes were filtered with 0.45 μm PES filter. In order to evaluate the stability of the ADGN/mRNA complexes in high serum and cell culture conditions, the complexes were incubated for 3 hrs in the presence of either 25% serum or heparan sulfate prior transfection, then 293T cells were transfected and Luciferase expression was monitored at 72 hrs.
ADGN-106 peptides containing YIGSR targeting sequence were evaluated for cellular delivery of Luciferase mRNA in 293T cells. A single dose of mRNA of 0.25 μg was evaluated. Luc mRNA (0.25 μg) in sterile water (GIBCO) were mixed with ADGN-106 and ADGN-106Hydro variant. ADGN-peptide/mRNA complexes were filtered with 0.45 μm PES filter. The ADGN-106/mRNA complexes were incubated for 3 hrs in the presence of 25% serum prior transfection, then 293T cells were transfected and Luciferase expression was monitored at 72 hrs.

[1] = absence of serum or heparan sulfate

With “Ac-GYVS-(G)4-KWRSALWRWRLWRVRSWSR-NH2 (Ac-GYVSGGGGKWRSALWRWRLWRVRSWSR-NH2) [ADGN-100 hydro-2]” the “luciferase expression and tissues” value (mice) was “negligible luciferase expression”.

In the case of “Ac-GYVS-Aun-KWRSALWRWRLWRVRSWSR-NH2 (Ac-GYVS[Aun]KWRSALWRWRLWRVRSWSR-NH2; SMILES CC(=O)NCC(=O)N[C@@H](Cc1ccc(O)cc1)C(=O)N[C@H](C(=O)N[C@@H](CO)C(=O)NCCCCCCCCCCC(=O)N[C@@H](CCCCN)C(=O)N[C@@H](Cc1c[nH]c2ccccc12)C(=O)N[C@@H](CCCNC(=N)N)C(=O)N[C@@H](CO)C(=O)N[C@@H](C)C(=O)N[C@@H](CC(C)C)C(=O)N[C@@H](Cc1c[nH]c2ccccc12)C(=O)N[C@@H](CCCNC(=N)N)C(=O)N[C@@H](Cc1c[nH]c2ccccc12)C(=O)N[C@@H](CCCNC(=N)N)C(=O)N[C@@H](CC(C)C)C(=O)N[C@@H](Cc1c[nH]c2ccccc12)C(=O)N[C@@H](CCCNC(=N)N)C(=O)N[C@H](C(=O)N[C@@H](CCCNC(=N)N)C(=O)N[C@@H](CO)C(=O)N[C@@H](Cc1c[nH]c2ccccc12)C(=O)N[C@@H](CO)C(=O)N[C@@H](CCCNC(=N)N)C(N)=O)C(C)C)C(C)C) [ADGN-100 hydro-6]”, the “luciferase expression and tissues” value (mice) is reported as “mainly observed in the liver and at lower level in the lung and the kidney” and the “increase of luciferase expression / efficiency relative to ADGN-100” value (mice) is reported as 3.4 fold.

“Stearyl-βA-KWRSALWRWRLWRVRSWSR-NH2 (Stearyl-[βAla]KWRSALWRWRLWRVRSWSR-NH2; not fully specified; printed as Stearyl-βA-KWRSALWRWRLWRVRSWSR-NH2) [ADGN-100 Stearyl]” was tested, and the “reduction of efficiency / luciferase expression by modification or linker vs unmodified ADGN peptide” value (293T cells; [1]) was “not significantly affected”, the “luciferase expression and tissues” value (mice) was “mainly observed in the liver and at lower level in the lung and the kidney” and the “increase of luciferase expression / efficiency relative to ADGN-100” value (mice) was 2.7 fold.

“akwllrwlsrwlrwlarwlr ([dA][dK][dW][dL][dL][dR][dW][dL][dS][dR][dW][dL][dR][dW][dL][dA][dR][dW][dL][dR]; also: retro-inverso) [ADGN-106-RI]” was tested, and the “reduction of efficiency / luciferase expression by modification or linker vs unmodified ADGN peptide” value (293T cells; [1]) was “did not modify”, the “reduction of efficiency / luciferase expression after serum treatment” value (293T cells) was 26% and the “reduction of efficiency / luciferase expression after heparan sulfate treatment” value (293T cells) was 13%.

“rswsrvrwlrwrwgasrwk ([dR][dS][dW][dS][dR][dV][dR][dW][dL][dR][dW][dR][dW]G[dA][dS][dR][dW][dK]; also: retro-inverso) [ADGN-100-RI]” was tested, and the “reduction of efficiency / luciferase expression by modification or linker vs unmodified ADGN peptide” value (293T cells; [1]) was “did not modify”, the “reduction of efficiency / luciferase expression after serum treatment” value (293T cells) was 40% and the “reduction of efficiency / luciferase expression after heparan sulfate treatment” value (293T cells) was 16%. The “luciferase expression and tissues” value (mice) was “mainly observed in the liver and at lower level in the lung and the kidney” and the “increase of luciferase expression / efficiency relative to ADGN-100” value (mice) was 4 fold.

In the case of “βAKWRSAGWRWRLW RVRSWSR (AKWRSAGWRWRLWRVRSWSR; N-terminal beta-alanine; VARIANT 1 beta-A) [ADGN-100]”, the luciferase expression (293T cells) is reported as “high level of luciferase expression”, the “reduction of efficiency / luciferase expression after serum treatment” value (293T cells) is reported as 90% and the “reduction of efficiency / luciferase expression after heparan sulfate treatment” value (293T cells) is reported as 50%. The “luciferase expression and tissues” value (mice) was “mainly observed in the liver and at lower level in the lung and the kidney”.

“βALWRALWRLWRSLWRLLWKA ([βAla]LWRALWRLWRSLWRLLWKA) [ADGN-106]” was tested, and the “potency relative to ADGN-100” value (293T cells; [1]) was 2 fold, the luciferase expression (293T cells) was “high level of luciferase expression” and the “reduction of efficiency / luciferase expression after heparan sulfate treatment” value (293T cells) was 50%. For the same substance, the “luciferase expression and tissues” value (mice) was “no or minimal expression”.
